Experimental findings from PMC3445454, “Broad and Cross-Clade CD4^+ T-Cell Responses Elicited by a DNA Vaccine Encoding Highly Conserved and Promiscuous HIV-1 M-Group Consensus Peptides” (PLoS ONE, 2012) are described below.

Residue numbers refer to the chain shown, from its start. Where two headings read alike, the source gives them in different places. Ends that are not written are not given here.

Experiment in all cases: biochemical
Experiment [1] concerns the target HLA-DR DRB1*01:01 (Homo sapiens, UniProt P01903+P01911, A100R/D57E/F55L/F60I/F76Y/I96L/L162R/M171V/P40L/Q125E/R42F/V115G/Y59C). In kind it is binding.
In experiment [2] the target is HLA-DR DRB1*04:01 (Homo sapiens, UniProt P01903+P01911, A100K/A169T/F76Y/I96L/K127E/L162R/M171V/N62H/P40V/Q125Y/R42H/S133A/S149N/S66Y/V115G/V209L/W38E). In kind it is binding.
Experiment [3] concerns the target HLA-DR DRB1*04:05 (Homo sapiens, UniProt P01903+P01911, A100R/A169T/D86S/F76Y/I96L/K127E/L162R/M171V/N62H/P40V/Q125Y/R42H/S133A/S149N/S66Y/V115G/V209L/W38E). In kind it is binding.
In experiment [4] the target is HLA-DR DRB1*08:02 (Homo sapiens, UniProt P01903+P01911, A100R/A103L/A169T/F76Y/H45Y/I96F/K41T/L162R/M171V/P40S/Q125H/Q178H/Q39Y/Q99D/R218S/R42G/S66Y/V115G/W38E). In kind it is binding.
The target of experiment [5] is HLA-DR DRB1*15:01 (Homo sapiens, UniProt P01903+P01911). In kind it is binding.
In experiment [6] the target is HLA-DR DRB1*16:02 (Homo sapiens, UniProt P01903+P01911, A100R/F76Y/I96L/Q99D/V115G). The class given is binding.
The target in experiment [7] is HLA-DR DRB3*01:01 (Homo sapiens, UniProt P01903+P79483). The class given is binding.
Experiment [8] has as its target HLA-DR DRB4*01:01 (Homo sapiens, UniProt P01903+P13762, G164S). In kind it is binding.
The target in experiment [9] is HLA-DR DRB5*01:01 (Homo sapiens, UniProt P01903+Q30154). In kind it is binding. As to conditions: read-out: Binding capacity/IC50 (nM) DRB5*01:01.
For experiment [10], the target named is T1, HLA-DP DPA1*01:03/DPB1*02:01 (Homo sapiens, UniProt P04440+P20036, A65V/A84D/A85E/K98E).
T1 sequence (P20036 29-260): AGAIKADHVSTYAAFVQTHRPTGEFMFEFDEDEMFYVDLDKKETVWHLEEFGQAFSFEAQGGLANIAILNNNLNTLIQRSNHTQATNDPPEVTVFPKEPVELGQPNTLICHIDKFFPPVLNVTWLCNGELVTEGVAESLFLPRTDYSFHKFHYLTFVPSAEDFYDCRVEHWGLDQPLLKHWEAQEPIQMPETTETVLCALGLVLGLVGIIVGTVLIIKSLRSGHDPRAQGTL
T1 sequence (P04440 30-258 A65V/A84D/A85E/K98E): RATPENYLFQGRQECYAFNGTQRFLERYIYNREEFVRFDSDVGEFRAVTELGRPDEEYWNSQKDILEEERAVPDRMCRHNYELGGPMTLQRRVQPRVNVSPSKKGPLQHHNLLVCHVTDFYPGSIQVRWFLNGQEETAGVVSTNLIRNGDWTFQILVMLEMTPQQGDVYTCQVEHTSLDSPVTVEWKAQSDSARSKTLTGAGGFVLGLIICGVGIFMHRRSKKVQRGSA
In kind it is binding.

The target in experiment [11] is T2, HLA-DP DPA1*02:01/DPB1*05:01 (Homo sapiens, UniProt P04440+P20036, A65V/A84E/F191V/F64L/G113D/G114E/K142R/L158P/M116V/M62Q/P115A/Q81R/R125K/T114A/T199I/T259P/V234M).
T2 sequence (P20036 29-260 A42M/M62Q/Q81R/T114A/K142R/L158P/F191V/T259P): T1 sequence (P20036 29-260) with A14M, M34Q, Q53R, T86A, K114R, L130P, F163V, T231P
T2 sequence (P04440 30-258 F64L/A65V/A84E/G113D/G114E/P115A/M116V/R125K/T199I/V234M): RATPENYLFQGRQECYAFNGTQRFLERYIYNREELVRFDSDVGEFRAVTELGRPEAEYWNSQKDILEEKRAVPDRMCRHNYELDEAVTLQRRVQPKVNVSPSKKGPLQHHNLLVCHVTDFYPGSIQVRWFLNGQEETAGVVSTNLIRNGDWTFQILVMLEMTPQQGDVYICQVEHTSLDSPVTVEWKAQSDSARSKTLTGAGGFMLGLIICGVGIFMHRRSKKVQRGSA
The class given is binding. As to conditions: read-out: Binding capacity/IC50 (nM) DPA1*02:01 DPB1*05:01.

The target in experiment [12] is T3, HLA-DP DPA1*01:03/DPB1*20:01 (Homo sapiens, UniProt P04440+P20036, A65V/A84D/A85E/E86D/F38Y/G113D/G114E/G40L/I94L/L37V/M116V/P115A/R125K/T199I).
T3 sequence (P20036 29-260): T1 sequence (P20036 29-260)
T3 sequence (P04440 30-258 L37V/F38Y/G40L/A65V/A84D/A85E/E86D/I94L/G113D/G114E/P115A/M116V/R125K/T199I/V234M): T2 sequence (P04440 30-258 F64L/A65V/A84E/G113D/G114E/P115A/M116V/R125K/T199I/V234M) with L8V, F9Y, G11L, L35F, E55D, A56E, E57D, I65L
The class given is binding. As to conditions: read-out: Binding capacity/IC50 (nM) DPA1*01:03 DPB1*20:01.

Experiment [13] deals with HLA-DP DPA1*03:01/DPB1*04:02 (Homo sapiens, UniProt P04440+P20036, A42M/A65V/A84D/A85E/L207M/L97S).
[14] abbreviates: read-out: Binding capacity/IC50 (nM) DRB1*01:01.
Where [15] appears, read: read-out: Binding capacity/IC50 (nM) DRB1*04:01.
[16] abbreviates: read-out: Binding capacity/IC50 (nM) DRB1*04:05.
Where [17] appears, read: read-out: Binding capacity/IC50 (nM) DRB1*08:02.
Setting [18] is: read-out: Binding capacity/IC50 (nM) DRB1*15:01.
Setting [19] is: read-out: Binding capacity/IC50 (nM) DRB1*16:02.
Setting [20] is: read-out: Binding capacity/IC50 (nM) DRB3*01:01.
[21] abbreviates: read-out: Binding capacity/IC50 (nM) DPA1*01:03 DPB1*02:01.
Where [22] appears, read: read-out: Binding capacity/IC50 (nM) DRB4*01:01.

`CC[C@H](C)[C@H](NC(=O)[C@H](Cc1ccc(O)cc1)NC(=O)CNC(=O)[C@H](CO)NC(=O)[C@H](C)NC(=O)[C@@H](NC(=O)[C@H](Cc1c[nH]cn1)NC(=O)[C@@H](NC(=O)[C@H](C)NC(=O)[C@@H](NC(=O)[C@H](CC(C)C)NC(=O)[C@@H](NC(=O)[C@@H](NC(=O)[C@H](CCCCN)NC(=O)CNC(=O)[C@@H](N)CCC(=O)O)[C@@H](C)CC)[C@@H](C)CC)C(C)C)C(C)C)C(C)C)C(=O)N[C@@H](CCC(=O)O)C(N)=O` [integrase(69-85)]: the IC50 was found to be 0.56 nM in experiment [1] (setting [14]); 7.6 nM in experiment [2] (setting [15]); 430 nM in experiment [3] (setting [16]); 11 nM in experiment [4] (setting [17]); 146 nM in experiment [5] (setting [18]); 167 nM in [6] (setting [19]). Moreover, the IC50 in experiment [7] (setting [20]) is 624 nM; in experiment [8], 56 nM; in experiment [9] it was 523 nM; in experiment [10] (setting [21]), 4.5 nM; in [11], 2710 nM; in experiment [12], 470 nM. The same compound had an IC50 in [13] of 212 nM.

As to SEELRSLYNTVATLYCVHQ-NH2 [p17(72-90)], the IC50 in [1] (setting [14]) is 20 nM; in [2] (setting [15]), 279 nM; in experiment [3] (setting [16]), 421 nM; in experiment [4] (setting [17]), 73 nM; in experiment [5] (setting [18]), 143 nM; in [6] (setting [19]), 140 nM. Besides, the IC50 in [7] (setting [20]) was 907 nM; in [8] (setting [22]), 1100 nM; in experiment [9] it was 435 nM; in experiment [10] (setting [21]) it was 67 nM; in [11], 1900 nM; in experiment [12] it was 2310 nM. The IC50 in experiment [13] was determined as 83 nM.

Take `CC[C@H](C)[C@H](NC(=O)[C@H](CCCCN)NC(=O)[C@@H](NC(=O)[C@@H](NC(=O)[C@@H](N)CCC(N)=O)[C@@H](C)CC)[C@@H](C)O)C(=O)N[C@@H](CCC(N)=O)C(=O)N[C@@H](CC(N)=O)C(=O)N[C@@H](Cc1ccccc1)C(=O)N[C@@H](CCCNC(=N)N)C(=O)N[C@H](C(=O)N[C@@H](Cc1ccc(O)cc1)C(=O)N[C@@H](Cc1ccc(O)cc1)C(=O)N[C@@H](CCCNC(=N)N)C(=O)N[C@@H](CC(=O)O)C(=O)N[C@@H](CO)C(=O)N[C@@H](CCCNC(=N)N)C(=O)N[C@@H](CC(=O)O)C(=O)N1CCC[C@H]1C(=O)N[C@H](C(=O)N[C@@H](Cc1c[nH]c2ccccc12)C(N)=O)[C@@H](C)CC)C(C)C` [integrase(216-235)]: the IC50 in experiment [1] (setting [14]) stood at 0.7 nM; in [2] (setting [15]), 203 nM; in experiment [3] (setting [16]), 179 nM; in [4] (setting [17]), 8.8 nM; in experiment [5] it was 5.3 nM; in [6] (setting [19]) it was 7.1 nM. Also, the IC50 in experiment [7] is 39 nM; in experiment [8] (setting [22]), 2080 nM; in [9], 9.5 nM; in experiment [10] it was 311 nM; in experiment [11], 7.6 nM; in experiment [12], 39 nM. The compound also yielded an IC50 in experiment [13] of 89 nM.

Regarding `CC(C)C[C@H](NC(=O)[C@H](CCCCN)NC(=O)[C@@H](NC(=O)[C@H](CC(C)C)NC(=O)[C@@H]1CCCN1C(=O)[C@@H]1CCCN1C(=O)[C@@H](NC(=O)[C@H](CC(N)=O)NC(=O)[C@@H](NC(=O)[C@H](Cc1ccccc1)NC(=O)[C@H](CCC(=O)O)NC(=O)[C@H](Cc1c[nH]c2ccccc12)NC(=O)[C@@H](N)CCC(=O)O)C(C)C)[C@@H](C)O)C(C)C)C(=O)N[C@@H](Cc1c[nH]c2ccccc12)C(=O)N[C@@H](Cc1ccc(O)cc1)C(N)=O` [RT(413-427)], the IC50 in [1] was found to be 26 nM; in [2] it was 42 nM; in experiment [3] it was 78 nM; in [4] it was 58 nM; in experiment [5] (setting [18]), 329 nM; in experiment [6], 10 nM. Moreover, the IC50 is 2390 nM in experiment [7] (setting [20]); 1420 nM in [8] (setting [22]); 14 nM in [9]; 639 nM in experiment [10] (setting [21]); 2820 nM in experiment [11]; 1070 nM in experiment [12]. Moreover, in experiment [13], the IC50 worked out at 7 nM.

Turning to `CC[C@H](C)[C@H](NC(=O)[C@@H]1CCCN1C(=O)[C@H](CCC(=O)O)NC(=O)[C@@H](N)CCCCN)C(=O)N[C@H](C(=O)NCC(=O)N[C@@H](C)C(=O)N[C@@H](CCC(=O)O)C(=O)N[C@H](C(=O)N[C@@H](Cc1ccccc1)C(=O)N[C@@H](Cc1ccc(O)cc1)C(=O)N[C@H](C(=O)N[C@@H](CC(=O)O)C(=O)NCC(=O)N[C@@H](C)C(N)=O)C(C)C)[C@@H](C)O)C(C)C` [RT(431-445)], the IC50 in experiment [1] (setting [14]) was 5.1 nM; in experiment [2] (setting [15]) it was 23 nM; in experiment [3] (setting [16]), 50 nM; in experiment [4] (setting [17]), 19 nM; in experiment [5] (setting [18]), 230 nM; in experiment [6] (setting [19]), 80 nM. In addition, the IC50 in experiment [7] is 13 nM; in [8] (setting [22]), 243 nM; in experiment [9], 148 nM; in [10] (setting [21]), 30 nM; in experiment [11], over 30000 nM; in [12], 26100 nM. Also, in experiment [13], the IC50 amounted to 132 nM.
